Data from patent publication US20220089679A1, “FUSION PROTEIN WITH IMMUNOSUPPRESSIVE ACTIVITY” (FUNDACIÓ INSTITUT D'INVESTIGACIÓ BIOMÈDICA DE BELL, priority 2019, published 2022).

Assays:
[1] = system: NZB/W F1 hybrid mice; assay: Murine lupus nephritis; type: in vivo; settings: for mortality / survival: up to the end of experiments at 32 weeks, Hybri 20 mg/kg ip days 0, 4, 14, 28, 56, 84, CYP 50 mg/kg ip every 10 days, versus PBS
Description: NZB/W F1 hybrid mice spontaneously develop a disease closely resembling human systemic lupus erythematous (SLE) with severe renal involvement, which is the main cause of animal mortality. In fact, this model, with a well-characterized evolution of renal disease, has been widely used to study the therapeutic potential of several new agents for SLE, as previously reported (Ripoll et al., “CD40 gene silencing reduces the progression of experimental lupus nephritis modulating local milieu and systemic mechanisms”, PLoS One, 2013, vol. 8(6)).
From 20 weeks of age, and close to a potential therapeutic schedule in humans, mice (n=9) received Hybri intraperitoneally (ip) at 20 mg/kg on days 0, 4, 14, 28, 56 and 84; or CYP (n=8) ip. at 50 mg/kg every 10 days; or 200 μl PBS ip. twice a week (n=8).

[2] = system: CD3+ T cell proliferation; assay: Mixed lymphocyte reaction (MLR) in vitro proliferation assay; type: cell-based, human; settings: for decrease of CD3+ cells proliferation: 6 days, as compared to spontaneous proliferation without immunosuppressive agents (MLR), two responder subjects
Protocol: Mixed Lymphocyte reactions (MLR) were performed in the presence or absence of different immunosuppressive drugs to test their inhibitory effect on T cell proliferation, following conventional methodology (Levitsky J, et al., “Allospecific regulatory effects of sirolimus and tacrolimus in the human mixed lymphocyte reaction”, Transplantation, 2011, vol. 91(2), pp. 199-206).
Briefly, peripheral blood mononuclear cells (PBMC) from healthy controls were used as responder cells. CD3^+-depleted splenocytes extracted from deceased donors and mature dendritic cells (DCs) were extracted with CD2 positive selection cocktail (Stem Cell Technologies, France) following manufacturer's instructions and they were used as stimulators in the assay. PBMC from peripheral blood samples and splenocytes were isolated by standard Ficoll density gradient centrifugation (Bargalló M E. et al., “Utility of Systematic Isolation of immune cell subsets from HIV-infected individuals for miRNA profiling”, J Immunol Methods, 2017, vol. 442, pp. 12-19). In order to obtain mature DCs, monocytes were isolated from PBMC by negative selection with Human monocyte enrichment kit (Stem Cell Technologies, France) following manufacturer's instructions, cultured for 6 days with complete Ex-vivo medium supplemented with 2% of human serum (Sigma Aldrich), GMSF (15 ng/ml; R&D) and IL-4 (10 ng/ml; Sigma Aldrich) (37° C. 5% CO2), and stimulated with LPS (1 μg/ml; Sigma Aldrich) for 24 h.
First, PBMC were stained with carboxyfluorescein succinimidyl ester (CFSE) (Lloberas N, et al., “Dendritic cells phenotype fitting under hypoxia or lipopolysaccharide; adenosine 5′-triphosphate-binding cassette transporters far beyond an efflux pump”, Clin Exp Immunol., 2013, vol. 172(3), pp. 444-54). […] At day 6, cells were harvested and stained for CD3-APC and CD4-PE (BD Bioscience, San Jose, Calif., USA) 20 minutes in the dark following manufacturer's instructions, and T-cell proliferation were analyzed by flow cytometry (BD FACS CANTO 11, San Jose, Calif., USA) using Facs Diva software and following manufacturer's instructions.
The in vitro proliferation assay was performed with high HLA-mismatch combination between 2 stimulator DCs and two corresponding responder subjects ([…], S2) T cells.

[3] = system: Lewis rats transplanted with a single kidney from a Wistar donor rat; assay: Rat renal allotransplantation (life-sustaining renal transplantation model); type: in vivo; settings: 500 μg intraperitoneally 2 hours before transplantation, then daily for 6 days, followed for 3 weeks, versus non-treated group, p<0.05
Description: A model of life-sustaining renal transplantation previously described (De Ramon et al., “CD154-CD40 T-cell co-stimulation pathway is a key mechanism in kidney ischemia-reperfusion injury”, Kidney Int., 2015, vol. 88(3), pp. 538-49) was used to test the therapeutic effects of the fusion protein. It is known that in experimental renal transplantation with highly alloreactive donor-recipient combination, severe acute rejection results in high recipients' mortality.
Briefly, Lewis rats were bi-nephrectomized and subsequently transplanted with a single kidney from a Wistar donor rat. […] In the control group, recipient Lewis rats received no treatment. Transplanted rats were followed for 3 weeks.

[4] = system: Wistar rats with 40 minutes of bilateral renal ischemia
Protocol: Rats were sham operated or suffered from renal warm ischemia and were treated with the fusion protein of the invention of sequence SEQ ID NO: 6 (Hybri) at 20 mg/kg ip. 24 hours before renal ischemia; and in the control ischemic group rats received PBS.

O=P1(N(CCCl)CCCl)NCCCO1 (stereo not shown) [CYP, cyclophosphamide, reference compound]
albuminuria (albuminuria/creatininuria ratio) ([1]; at 3 months of therapy): reducing albuminuria | mortality / survival [1]: no mortality

Hybri: fusion protein of human PDL2 extracellular domain, (GGGGS)3 linker, human CTLA4 extracellular domain, Fc of human IgG, poly-histidine tag; SEQ ID NO: 6
inhibition of mature CD3+ T cell proliferation (in words) ([2]; 10 μg/mL and 20 μg/mL, compared with tacrolimus (10 nM), FIG. 5): strongly inhibit | decrease of CD3+ cells proliferation ([2]; 10 μg/mL): 97%-99% | decrease of CD3+ cells proliferation ([2]; 20 μg/mL): 94%-99% | reduction in T cell proliferation (immunosuppressive effect, FIG. 5) ([2]; summary statement of FIG. 5): nearly complete | survival [3]: significantly higher survival | survival ([3]; listed as fusion polypeptide): strongly improved the survival | anti-DNA antibodies in serum ([1]; FIG. 8B): effectively reduced anti-DNA antibodies to similar levels than CYP | albuminuria (albuminuria/creatininuria ratio) ([1]; mouse, in vivo): as efficient as CYP in reducing albuminuria | mortality / survival [1]: no mortality | mortality / survival ([1]; listed as fusion polypeptide): strongly improved the survival | preservation of renal structure ([4]; 20 mg/kg ip. 24 hours before renal ischemia): better preservation of renal structure | renal function (serum creatinine levels) ([4]; 20 mg/kg ip. 24 hours before renal ischemia, 24 hours after warm ischemia, versus PBS, p=0.0038): significantly improved renal function | T cells with regulatory phenotype (Tregs) per high power field in renal parenchyma ([4]; compared to non-treated ischemic kidneys): increased | renal failure in sham operated rats ([4]; rat, in vivo): did not develop renal failure
